Results reported in patent US9302999B2, “Substituted triazoles as herbicides” (E. I. DU PONT DE NEMOURS AND COMPANY, priority 2012, dated 2016).

What was measured:
Assay type in all cases: in vivo
[1] = tested on: lambsquarters (Chenopodium album); assay: Test C pre-/postemergence: lambsquarters
In short: (§1)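 Preemergence on seeds in loam/sand, postemergence on 2–18 cm (1–4-leaf) plants in peat-based medium; compounds in non-phytotoxic solvent with surfactant. After 13–15 days in greenhouse, visual rating versus controls, 0 (no effect) to 100 (complete control).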

[2] = tested on: galium (catchweed bedstraw, Galium aparine); assay: Test C pre-/postemergence: galium
In short: as §1

[3] = tested on: cocklebur (common cocklebur, Xanthium strumarium); assay: Test C pre-/postemergence: cocklebur
In short: as §1

[4] = tested on: rice (Oryza sativa); assay: Test B flooded paddy: rice; conditions: Flood; 250 g ai/ha; applied to paddy water at 2-leaf stage; visually evaluated after 13 to 15 days
In short: (§2)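 Plants were grown to the 2-leaf stage, then pots were flooded to 3 cm above the soil and compounds were applied directly into the paddy water. Water depth was held for the whole test; after 13 to 15 days in a greenhouse, injury was visually rated against untreated controls (0 = no effect, 100 = complete control).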

[5] = tested on: winter wheat (Triticum aestivum); assay: Test C pre-/postemergence: winter wheat
In short: as §1

[6] = tested on: sedge, umbrella (small-flower umbrella sedge Cyperus difformis); assay: Test B flooded paddy: sedge, umbrella; conditions: Flood; 250 g ai/ha; applied to paddy water at 2-leaf stage; visually evaluated after 13 to 15 days
In short: as §2

[7] = tested on: common (oilseed) sunflower (Helianthus annuus); assay: Test C pre-/postemergence: sunflower; conditions: Preemergence
In short: as §1

[8] = tested on: nightshade (eastern black nightshade, Solanum ptycanthum); assay: Test C pre-/postemergence: nightshade; conditions: Preemergence
In short: as §1

[9] = tested on: corn (Zea mays); assay: Test C pre-/postemergence: corn
In short: as §1

[10] = tested on: canarygrass (Phalaris minor); assay: Test C postemergence: canarygrass
In short: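 Pot-grown plants in peat/vermiculite medium sprayed postemergence at 2–18 cm height (1- to 4-leaf stage). Kept in greenhouse 13 to 15 days, then visually rated against untreated controls on a 0–100 scale (0 = no effect, 100 = complete control).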

[11] = tested on: velvetleaf (Abutilon theophrasti); assay: Test C pre-/postemergence: velvetleaf
In short: as §1

[12] = Postemergence, 31 g ai/ha, scale 0 to 100 (0 no effect, 100 complete control)
[13] = Postemergence, 62 g ai/ha, scale 0 to 100 (0 no effect, 100 complete control)
[14] = Postemergence, 125 g ai/ha, scale 0 to 100, 0 no effect, 100 complete control
[15] = Postemergence, 250 g ai/ha, scale 0 to 100
[16] = Preemergence, 31 g ai/ha, scale of 0 to 100, 0 is no effect, 100 is complete control
[17] = Preemergence, 62 g ai/ha, scale of 0 to 100, 0 is no effect, 100 is complete control
[18] = Preemergence, 125 g ai/ha, scale 0 to 100, 0 no effect, 100 complete control
[19] = Preemergence, 250 g ai/ha, scale 0 to 100, 0 no effect, 100 complete control
[20] = Preemergence, 62 g ai/ha, scale 0 to 100, 0 no effect, 100 complete control
[21] = 31 g ai/ha, scale of 0 to 100, 0 is no effect, 100 is complete control
[22] = 62 g ai/ha, scale of 0 to 100, 0 is no effect, 100 is complete control
[23] = 125 g ai/ha, scale 0 to 100, 0 no effect, 100 complete control
[24] = 250 g ai/ha, scale 0 to 100, 0 no effect, 100 complete control
[25] = 31 g ai/ha, scale 0 to 100 (0 no effect, 100 complete control)
[26] = 62 g ai/ha, scale 0 to 100 (0 no effect, 100 complete control)

## Fc1ccc(-n2nc(Cc3ccnc(C(F)(F)F)c3)c(OC(F)F)n2)cc1 [Compound 25]
[1]; [12]
  Plant response rating, Lambsquarters: 70
[1]; [13]
  Plant response rating, Lambsquarters: 80
[1]; [14]
  Plant response rating, Lambsquarters: 98
[1]; [15]
  Plant response rating, Lambsquarters: 98
[1]; [16]
  Plant response rating, Lambsquarters: 90
[1]; [17]
  Plant response rating, Lambsquarters: 90
[1]; [18]
  Plant response rating, Lambsquarters: 98
[1]; [19]
  Plant response rating, Lambsquarters: 98
[2]; [12]
  Plant response rating, Galium: 50
[2]; [13]
  Plant response rating, Galium: 50
[2]; [14]
  Plant response rating, Galium: 55
[2]; [15]
  Plant response rating, Galium: 55
[2]; [16]
  Plant response rating, Galium: 0
[2]; [17]
  Plant response rating, Galium: 15
[2]; [18]
  Plant response rating, Galium: 80
[2]; [19]
  Plant response rating, Galium: 98
[3]; [12]
  Plant response rating, Cocklebur: 15
[3]; [13]
  Plant response rating, Cocklebur: 20
[3]; [14]
  Plant response rating, Cocklebur: 20
[3]; [15]
  Plant response rating, Cocklebur: 20
[3]; [16]
  Plant response rating, Cocklebur: 0
[3]; [20]
  Plant response rating, Cocklebur: 0
[3]; [18]
  Plant response rating, Cocklebur: 0
[3]; [19]
  Plant response rating, Cocklebur: 30
[4]
  Plant response rating, Rice (0 to 100 scale, 0 is no effect, 100 is complete control): 35
[5]; [12]
  Plant response rating, Wheat: 10
[5]; [13]
  Plant response rating, Wheat: 20
[5]; [14]
  Plant response rating, Wheat: 30
[5]; [15]
  Plant response rating, Wheat: 30
[5]; [16]
  Plant response rating, Wheat: 0
[5]; [17]
  Plant response rating, Wheat: 5
[5]; [18]
  Plant response rating, Wheat: 10
[5]; [19]
  Plant response rating, Wheat: 35
[6]
  Plant response rating, Sedge, Umbrella (0 to 100 scale, 0 is no effect, 100 is complete control): 95
[7]; [21]
  Plant response rating, Sunflower: 0
[7]; [22]
  Plant response rating, Sunflower: 0
[7]; [23]
  Plant response rating, Sunflower: 0
[7]; [24]
  Plant response rating, Sunflower: 0
[8]; [21]
  Plant response rating, Nightshade: 10
[8]; [22]
  Plant response rating, Nightshade: 45
[8]; [23]
  Plant response rating, Nightshade: 95
[8]; [24]
  Plant response rating, Nightshade: 95
[9]; [12]
  Plant response rating, Corn: 20
[9]; [13]
  Plant response rating, Corn: 20
[9]; [14]
  Plant response rating, Corn: 20
[9]; [15]
  Plant response rating, Corn: 25
[9]; [16]
  Plant response rating, Corn: 0
[9]; [20]
  Plant response rating, Corn: 0
[9]; [18]
  Plant response rating, Corn: 5
[9]; [19]
  Plant response rating, Corn: 10
[10]; [25]
  Plant response rating, Canarygrass: 5
[10]; [26]
  Plant response rating, Canarygrass: 10
[10]; [23]
  Plant response rating, Canarygrass: 30
[10]; 250 g ai/ha, scale 0 to 100
  Plant response rating, Canarygrass: 55
[11]; [12]
  Plant response rating, Velvetleaf: 15
[11]; [13]
  Plant response rating, Velvetleaf: 15
[11]; [14]
  Plant response rating, Velvetleaf: 45
[11]; [15]
  Plant response rating, Velvetleaf: 50
[11]; [16]
  Plant response rating, Velvetleaf: 0
[11]; [17]
  Plant response rating, Velvetleaf: 5
[11]; [18]
  Plant response rating, Velvetleaf: 15
[11]; [19]
  Plant response rating, Velvetleaf: 70

## FC(F)Oc1nn(-c2ccc(C(F)(F)F)cc2)nc1Cc1ccnc(C(F)(F)F)c1 [Compound 26]
[1]; [12]
  Plant response rating, Lambsquarters: 80
[1]; [13]
  Plant response rating, Lambsquarters: 95
[1]; [14]
  Plant response rating, Lambsquarters: 98
[1]; [15]
  Plant response rating, Lambsquarters: 98
[1]; [16]
  Plant response rating, Lambsquarters: 70
[1]; [17]
  Plant response rating, Lambsquarters: 98
[1]; [18]
  Plant response rating, Lambsquarters: 98
[1]; [19]
  Plant response rating, Lambsquarters: 100
[2]; [12]
  Plant response rating, Galium: 50
[2]; [13]
  Plant response rating, Galium: 55
[2]; [14]
  Plant response rating, Galium: 75
[2]; [15]
  Plant response rating, Galium: 75
[2]; [16]
  Plant response rating, Galium: 50
[2]; [17]
  Plant response rating, Galium: 75
[2]; [18]
  Plant response rating, Galium: 100
[2]; [19]
  Plant response rating, Galium: 100
[3]; [12]
  Plant response rating, Cocklebur: 10
[3]; [13]
  Plant response rating, Cocklebur: 15
[3]; [14]
  Plant response rating, Cocklebur: 55
[3]; [15]
  Plant response rating, Cocklebur: 65
[3]; [16]
  Plant response rating, Cocklebur: 0
[3]; [20]
  Plant response rating, Cocklebur: 5
[3]; [18]
  Plant response rating, Cocklebur: 15
[3]; [19]
  Plant response rating, Cocklebur: 55
[4]
  Plant response rating, Rice (0 to 100 scale, 0 is no effect, 100 is complete control): 80
[5]; [12]
  Plant response rating, Wheat: 10
[5]; [13]
  Plant response rating, Wheat: 20
[5]; [14]
  Plant response rating, Wheat: 30
[5]; [15]
  Plant response rating, Wheat: 35
[5]; [16]
  Plant response rating, Wheat: 0
[5]; [17]
  Plant response rating, Wheat: 5
[5]; [18]
  Plant response rating, Wheat: 30
[5]; [19]
  Plant response rating, Wheat: 30
[6]
  Plant response rating, Sedge, Umbrella (0 to 100 scale, 0 is no effect, 100 is complete control): 90
[7]; [21]
  Plant response rating, Sunflower: 0
[7]; [23]
  Plant response rating, Sunflower: 10
[7]; [24]
  Plant response rating, Sunflower: 15
[8]; [21]
  Plant response rating, Nightshade: 55
[8]; [22]
  Plant response rating, Nightshade: 90
[8]; [23]
  Plant response rating, Nightshade: 98
[8]; [24]
  Plant response rating, Nightshade: 98
[9]; [12]
  Plant response rating, Corn: 20
[9]; [13]
  Plant response rating, Corn: 20
[9]; [14]
  Plant response rating, Corn: 20
[9]; [15]
  Plant response rating, Corn: 25
[9]; [16]
  Plant response rating, Corn: 0
[9]; [20]
  Plant response rating, Corn: 5
[9]; [18]
  Plant response rating, Corn: 5
[9]; [19]
  Plant response rating, Corn: 5
[10]; [25]
  Plant response rating, Canarygrass: 40
[10]; [26]
  Plant response rating, Canarygrass: 45
[10]; [23]
  Plant response rating, Canarygrass: 90
[10]; 250 g ai/ha, scale 0 to 100
  Plant response rating, Canarygrass: 90
[11]; [12]
  Plant response rating, Velvetleaf: 25
[11]; [13]
  Plant response rating, Velvetleaf: 50
[11]; [14]
  Plant response rating, Velvetleaf: 55
[11]; [15]
  Plant response rating, Velvetleaf: 85
[11]; [16]
  Plant response rating, Velvetleaf: 25
[11]; [17]
  Plant response rating, Velvetleaf: 35
[11]; [18]
  Plant response rating, Velvetleaf: 75
[11]; [19]
  Plant response rating, Velvetleaf: 100
